These compounds were tested against T1, GPER1 (GPR30) (Mus musculus, UniProt Q8BMP4) (assay: cAMP accumulation, radiometric PKA binding assay, mHippoE-18 cells). Details: agonist; potentiation of 10 μM forskolin-stimulated cAMP, 100 μM IBMX, 20 min; endogenous receptor, no antagonist.
T1 construct: full-length endogenous receptor, native in mHippoE-18 immortalized embryonic mouse hippocampal cell line (CELLutions Biosystems); cells also express moderate ERalpha and ERbeta
T1 sequence (Q8BMP4 1-375): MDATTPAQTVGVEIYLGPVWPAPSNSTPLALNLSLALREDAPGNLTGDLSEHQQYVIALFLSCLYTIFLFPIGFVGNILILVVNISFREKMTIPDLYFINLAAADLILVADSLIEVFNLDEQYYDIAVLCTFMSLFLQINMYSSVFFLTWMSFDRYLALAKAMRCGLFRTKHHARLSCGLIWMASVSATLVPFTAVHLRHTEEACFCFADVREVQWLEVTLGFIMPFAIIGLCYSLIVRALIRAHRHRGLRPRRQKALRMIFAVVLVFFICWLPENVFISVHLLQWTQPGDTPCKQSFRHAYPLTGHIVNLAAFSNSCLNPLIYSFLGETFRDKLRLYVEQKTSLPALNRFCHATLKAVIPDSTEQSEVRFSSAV
Type: cell-based

Question: Which EC50 does the source give for `C[C@]12CC[C@@H]3c4ccc(O)cc4C[C@@H](CCCCCCCCC[S+]([O-])CCCC(F)(F)C(F)(F)F)[C@H]3[C@@H]1CC[C@@H]2O` (stereo partly drawn) [ICI 182,780, 7α, 17β-[9-[(4,4,5,5,5-Pentafluoropentyl)sulfinyl]nonyl]estra-1,3,5(10)-triene-3,17-diol] here?
Answer: 3.6 nM

Question: `CC(=O)c1ccc2c(c1)[C@H]1C=CC[C@H]1[C@@H](c1cc3c(cc1Br)OCO3)N2` (racemic) [G1] was tested. Which EC50 did it give?
Answer: 0.52 nM

Question: With `C[C@]12CC[C@@H]3c4ccc(O)cc4CC[C@H]3[C@@H]1CC[C@@H]2O` [17β-Estradiol] as the compound, how does the EC50 read?
Answer: 1.1 nM

Reference: article PMC4801207, “Characterisation of Signalling by the Endogenous GPER1 (GPR30) Receptor in an Embryonic Mouse Hippocampal Cell Line (mHippoE-18)” (PLoS ONE, 2016)
